Experimental data from ChEMBL document CHEMBL1764978, “Cysteine mapping in conformationally distinct kinase nucleotide binding sites: application to the design of selective covalent inhibitors” (J Med Chem, 2011).
pIC50: −log10 of the molar value. Values belong to the molecule of their own block, whether it stands above or below them.

What was measured:
[1] = target: T1, Mast/stem cell growth factor receptor Kit (Homo sapiens, UniProt P10721); experiment: Inhibition of human wild type KIT assessed as [gamma33P]ATP incorporation into polyGluTyr after 60 mins by microplate scintillation counting
T1 sequence (P10721 whole entry): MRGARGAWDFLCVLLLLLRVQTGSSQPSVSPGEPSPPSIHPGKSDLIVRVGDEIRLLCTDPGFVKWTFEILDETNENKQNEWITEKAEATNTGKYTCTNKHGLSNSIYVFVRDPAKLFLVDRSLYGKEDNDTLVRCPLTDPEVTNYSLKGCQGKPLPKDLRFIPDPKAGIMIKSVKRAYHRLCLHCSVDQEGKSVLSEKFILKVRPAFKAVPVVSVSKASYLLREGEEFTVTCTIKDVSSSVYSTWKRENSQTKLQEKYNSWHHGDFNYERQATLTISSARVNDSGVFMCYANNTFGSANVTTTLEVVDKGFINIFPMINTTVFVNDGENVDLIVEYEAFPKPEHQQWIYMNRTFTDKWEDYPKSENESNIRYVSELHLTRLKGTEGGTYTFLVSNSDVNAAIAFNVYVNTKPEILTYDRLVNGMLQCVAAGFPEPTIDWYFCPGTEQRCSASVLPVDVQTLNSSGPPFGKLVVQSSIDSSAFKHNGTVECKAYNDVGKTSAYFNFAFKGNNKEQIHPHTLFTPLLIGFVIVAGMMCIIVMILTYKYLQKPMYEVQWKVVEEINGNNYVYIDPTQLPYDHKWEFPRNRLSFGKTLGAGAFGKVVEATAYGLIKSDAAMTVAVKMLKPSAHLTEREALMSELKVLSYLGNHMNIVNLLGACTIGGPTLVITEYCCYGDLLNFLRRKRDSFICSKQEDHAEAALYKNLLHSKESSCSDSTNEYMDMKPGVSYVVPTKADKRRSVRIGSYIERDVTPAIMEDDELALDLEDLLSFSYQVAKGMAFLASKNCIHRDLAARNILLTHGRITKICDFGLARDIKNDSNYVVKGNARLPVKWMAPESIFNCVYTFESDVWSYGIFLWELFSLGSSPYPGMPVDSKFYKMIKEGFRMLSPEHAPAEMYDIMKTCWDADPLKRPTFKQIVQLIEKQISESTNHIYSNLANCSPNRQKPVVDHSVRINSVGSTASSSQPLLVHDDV

[2] = target: Fibroblast growth factor receptor 3 (Homo sapiens) (UniProt P22607); experiment: Binding affinity to human Fgfr3 assessed as residual binding at 10 uM by site dependent competitive binding assay
[3] = target: Vascular endothelial growth factor receptor 3 (Homo sapiens) (UniProt P35916); experiment: Binding affinity to human Flt4 assessed as residual binding at 10 uM by site dependent competitive binding assay
[4] = target: Serine/threonine-protein kinase MARK2 (Homo sapiens) (UniProt Q7KZI7); experiment: Binding affinity to human Mark2 isoleucine residue assessed as residual binding at 10 uM by site dependent competitive binding assay
[5] = target: Ephrin type-A receptor 8 (Homo sapiens) (UniProt P29322); experiment: Binding affinity to human EPHA8 tyrosine residue assessed as residual binding at 10 uM by site dependent competitive binding assay
Chain of Ephrin type-A receptor 8 (Homo sapiens) (P29322 whole entry): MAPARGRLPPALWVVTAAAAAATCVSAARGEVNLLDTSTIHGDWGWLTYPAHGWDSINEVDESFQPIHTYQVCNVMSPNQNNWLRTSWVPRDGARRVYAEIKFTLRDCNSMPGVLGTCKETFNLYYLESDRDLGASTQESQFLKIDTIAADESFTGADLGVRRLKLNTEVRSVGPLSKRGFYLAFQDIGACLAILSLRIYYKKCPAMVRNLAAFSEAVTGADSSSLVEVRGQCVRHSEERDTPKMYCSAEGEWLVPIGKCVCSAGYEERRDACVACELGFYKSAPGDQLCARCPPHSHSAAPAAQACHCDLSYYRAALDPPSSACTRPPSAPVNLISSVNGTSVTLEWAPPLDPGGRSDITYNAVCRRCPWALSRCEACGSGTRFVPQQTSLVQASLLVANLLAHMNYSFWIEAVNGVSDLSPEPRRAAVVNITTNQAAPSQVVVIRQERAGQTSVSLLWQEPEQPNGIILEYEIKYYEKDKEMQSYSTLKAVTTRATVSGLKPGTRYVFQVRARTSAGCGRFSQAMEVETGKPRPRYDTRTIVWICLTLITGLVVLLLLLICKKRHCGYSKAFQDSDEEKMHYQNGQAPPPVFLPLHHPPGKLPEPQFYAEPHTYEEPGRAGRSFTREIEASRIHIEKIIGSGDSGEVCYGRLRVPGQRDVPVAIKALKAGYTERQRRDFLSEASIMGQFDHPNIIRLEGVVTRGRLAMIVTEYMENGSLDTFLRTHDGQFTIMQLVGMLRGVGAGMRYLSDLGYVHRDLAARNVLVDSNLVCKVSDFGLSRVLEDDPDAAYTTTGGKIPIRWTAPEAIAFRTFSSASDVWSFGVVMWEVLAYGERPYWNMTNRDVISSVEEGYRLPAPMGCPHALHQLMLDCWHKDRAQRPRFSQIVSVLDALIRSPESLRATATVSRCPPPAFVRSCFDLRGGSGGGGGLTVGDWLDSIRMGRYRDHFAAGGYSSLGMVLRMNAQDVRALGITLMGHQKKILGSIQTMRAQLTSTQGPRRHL

[6] = target: Tyrosine-protein kinase Fer (Homo sapiens) (UniProt P16591); experiment: Binding affinity to human Fer assessed as residual binding at 10 uM by site dependent competitive binding assay
Chain of Tyrosine-protein kinase Fer (Homo sapiens) (P16591 whole entry, looked up): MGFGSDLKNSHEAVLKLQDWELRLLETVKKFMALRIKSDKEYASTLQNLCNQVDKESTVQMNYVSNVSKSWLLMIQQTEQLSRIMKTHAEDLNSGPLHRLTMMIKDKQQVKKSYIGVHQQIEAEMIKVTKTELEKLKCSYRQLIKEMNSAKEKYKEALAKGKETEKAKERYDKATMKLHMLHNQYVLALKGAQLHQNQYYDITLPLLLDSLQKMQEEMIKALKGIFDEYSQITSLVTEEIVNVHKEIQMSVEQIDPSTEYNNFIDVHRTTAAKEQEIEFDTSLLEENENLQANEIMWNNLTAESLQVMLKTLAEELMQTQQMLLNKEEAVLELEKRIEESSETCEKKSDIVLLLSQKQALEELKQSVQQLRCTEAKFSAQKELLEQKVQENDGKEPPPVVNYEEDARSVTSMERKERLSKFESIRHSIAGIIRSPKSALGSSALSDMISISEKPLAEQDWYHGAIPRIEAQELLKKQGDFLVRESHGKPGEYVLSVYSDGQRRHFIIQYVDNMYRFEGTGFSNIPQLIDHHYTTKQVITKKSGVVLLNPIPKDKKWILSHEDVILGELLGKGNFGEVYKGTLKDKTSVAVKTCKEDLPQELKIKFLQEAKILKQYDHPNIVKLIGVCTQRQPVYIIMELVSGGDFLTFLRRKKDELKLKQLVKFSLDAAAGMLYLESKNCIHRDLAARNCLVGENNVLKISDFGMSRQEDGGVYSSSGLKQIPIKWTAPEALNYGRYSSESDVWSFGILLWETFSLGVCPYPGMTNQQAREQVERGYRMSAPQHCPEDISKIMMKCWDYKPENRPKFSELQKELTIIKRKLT

[7] = target: Tyrosine-protein kinase Blk (Homo sapiens) (UniProt P51451); experiment: Binding affinity to human BLK serine residue assessed as residual binding at 10 uM by site dependent competitive binding assay
[8] = target: Cyclin-G-associated kinase (Homo sapiens) (UniProt O14976); experiment: Binding affinity to human GAK isoleucine residue assessed as residual binding at 10 uM by site dependent competitive binding assay
[9] = target: Serine/threonine-protein kinase 17A (Homo sapiens) (UniProt Q9UEE5); experiment: Binding affinity to human DRAK1 valine residue assessed as residual binding at 10 uM by site dependent competitive binding assay
[10] = target: Vascular endothelial growth factor receptor 1 (Homo sapiens) (UniProt P17948); experiment: Binding affinity to human Flt1 assessed as residual binding at 10 uM by site dependent competitive binding assay
[11] = target: Fibroblast growth factor receptor 4 (Homo sapiens) (UniProt P22455); experiment: Binding affinity to human Fgfr4 assessed as residual binding at 10 uM by site dependent competitive binding assay
[12] = target: Tyrosine-protein kinase ABL1 (Homo sapiens, UniProt P00519); experiment: Inhibition of human wild type ABL1 assessed as [gamma33P]ATP incorporation into poly-Ala-Glu-Lys-Tyr after 60 mins by microplate scintillation counting
Chain of Tyrosine-protein kinase ABL1 (P00519 whole entry): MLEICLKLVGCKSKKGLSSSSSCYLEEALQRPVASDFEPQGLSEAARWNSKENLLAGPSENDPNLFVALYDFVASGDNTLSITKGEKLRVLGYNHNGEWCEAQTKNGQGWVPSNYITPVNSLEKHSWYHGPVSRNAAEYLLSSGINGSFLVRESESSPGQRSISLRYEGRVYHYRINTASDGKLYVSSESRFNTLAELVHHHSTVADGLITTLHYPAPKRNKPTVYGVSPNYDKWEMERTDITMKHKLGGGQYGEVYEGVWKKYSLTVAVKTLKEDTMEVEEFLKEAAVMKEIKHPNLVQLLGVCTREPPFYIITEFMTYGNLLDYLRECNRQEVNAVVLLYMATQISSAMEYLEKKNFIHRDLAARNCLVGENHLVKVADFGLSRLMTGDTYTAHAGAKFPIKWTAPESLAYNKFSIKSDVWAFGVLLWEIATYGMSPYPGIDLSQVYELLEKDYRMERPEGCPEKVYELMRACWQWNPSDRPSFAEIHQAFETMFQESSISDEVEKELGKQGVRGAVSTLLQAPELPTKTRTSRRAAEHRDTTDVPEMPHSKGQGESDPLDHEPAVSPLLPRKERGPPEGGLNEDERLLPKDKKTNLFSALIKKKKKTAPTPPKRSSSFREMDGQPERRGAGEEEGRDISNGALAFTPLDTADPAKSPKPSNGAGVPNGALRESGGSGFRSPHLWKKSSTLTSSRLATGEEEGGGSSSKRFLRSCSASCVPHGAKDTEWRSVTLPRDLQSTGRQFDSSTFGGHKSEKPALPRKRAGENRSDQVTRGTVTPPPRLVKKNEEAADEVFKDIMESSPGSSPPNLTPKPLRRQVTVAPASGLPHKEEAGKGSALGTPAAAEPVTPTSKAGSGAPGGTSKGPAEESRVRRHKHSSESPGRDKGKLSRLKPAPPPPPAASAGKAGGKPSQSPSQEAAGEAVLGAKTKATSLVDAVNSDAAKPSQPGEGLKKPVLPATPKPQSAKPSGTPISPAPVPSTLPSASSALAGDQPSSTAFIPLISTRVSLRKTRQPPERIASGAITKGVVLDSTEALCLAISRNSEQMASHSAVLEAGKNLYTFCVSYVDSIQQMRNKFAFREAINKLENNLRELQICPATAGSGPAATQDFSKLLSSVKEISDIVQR

[13] = tested on: Mast/stem cell growth factor receptor Kit (Homo sapiens), P10721 [V559D,V654A]; experiment: Binding affinity to human Kit V559D/V654A mutant cysteine residue assessed as residual binding at 1 uM by site dependent competitive binding assay
Chain of Mast/stem cell growth factor receptor Kit (Homo sapiens), P10721 [V559D,V654A] (P10721 whole entry V559D/V654A): as the sequence (P10721 whole entry) above, with V559D, V654A counted along it

[14] = target: Tyrosine-protein kinase Lyn (Homo sapiens) (UniProt P07948); experiment: Binding affinity to human LYN tyrosine residue assessed as residual binding at 1 uM by site dependent competitive binding assay
[15] = target: Tyrosine-protein kinase Blk (Homo sapiens) (UniProt P51451); experiment: Binding affinity to human BLK serine residue assessed as residual binding at 1 uM by site dependent competitive binding assay
[16] = target: Mitogen-activated protein kinase 9 (Homo sapiens) (UniProt P45984); experiment: Binding affinity to human Jnk2 isoleucine residue assessed as residual binding at 1 uM by site dependent competitive binding assay
[17] = target: Tyrosine-protein kinase JAK3 (Homo sapiens) (UniProt P52333); experiment: Binding affinity to human Jak3 domain 1 assessed as residual binding at 1 uM by site dependent competitive binding assay
[18] = target: Fibroblast growth factor receptor 2 (Homo sapiens) (UniProt P21802); experiment: Binding affinity to human Fgfr2 assessed as residual binding at 1 uM by site dependent competitive binding assay
[19] = target: Receptor-type tyrosine-protein kinase FLT3 (Homo sapiens) (UniProt P36888); experiment: Binding affinity to human Flt3 assessed as residual binding at 1 uM by site dependent competitive binding assay
[20] = target: Discoidin domain-containing receptor 2 (Homo sapiens) (UniProt Q16832); experiment: Binding affinity to human DDR2 phenylalanine residue assessed as residual binding at 1 uM by site dependent competitive binding assay
[21] = target: Serine/threonine-protein kinase 3 (Homo sapiens) (UniProt Q13188); experiment: Binding affinity to human Mst2 […] residue assessed as residual binding at 1 uM by site dependent competitive binding assay
[22] = target: T2, Platelet-derived growth factor receptor alpha (Homo sapiens, UniProt P16234); experiment: Inhibition of human wild type PDGFRalpha assessed as [gamma33P]ATP incorporation into poly-Ala-Glu-Lys-Tyr after 60 mins by microplate scintillation counting
T2 sequence (P16234 whole entry): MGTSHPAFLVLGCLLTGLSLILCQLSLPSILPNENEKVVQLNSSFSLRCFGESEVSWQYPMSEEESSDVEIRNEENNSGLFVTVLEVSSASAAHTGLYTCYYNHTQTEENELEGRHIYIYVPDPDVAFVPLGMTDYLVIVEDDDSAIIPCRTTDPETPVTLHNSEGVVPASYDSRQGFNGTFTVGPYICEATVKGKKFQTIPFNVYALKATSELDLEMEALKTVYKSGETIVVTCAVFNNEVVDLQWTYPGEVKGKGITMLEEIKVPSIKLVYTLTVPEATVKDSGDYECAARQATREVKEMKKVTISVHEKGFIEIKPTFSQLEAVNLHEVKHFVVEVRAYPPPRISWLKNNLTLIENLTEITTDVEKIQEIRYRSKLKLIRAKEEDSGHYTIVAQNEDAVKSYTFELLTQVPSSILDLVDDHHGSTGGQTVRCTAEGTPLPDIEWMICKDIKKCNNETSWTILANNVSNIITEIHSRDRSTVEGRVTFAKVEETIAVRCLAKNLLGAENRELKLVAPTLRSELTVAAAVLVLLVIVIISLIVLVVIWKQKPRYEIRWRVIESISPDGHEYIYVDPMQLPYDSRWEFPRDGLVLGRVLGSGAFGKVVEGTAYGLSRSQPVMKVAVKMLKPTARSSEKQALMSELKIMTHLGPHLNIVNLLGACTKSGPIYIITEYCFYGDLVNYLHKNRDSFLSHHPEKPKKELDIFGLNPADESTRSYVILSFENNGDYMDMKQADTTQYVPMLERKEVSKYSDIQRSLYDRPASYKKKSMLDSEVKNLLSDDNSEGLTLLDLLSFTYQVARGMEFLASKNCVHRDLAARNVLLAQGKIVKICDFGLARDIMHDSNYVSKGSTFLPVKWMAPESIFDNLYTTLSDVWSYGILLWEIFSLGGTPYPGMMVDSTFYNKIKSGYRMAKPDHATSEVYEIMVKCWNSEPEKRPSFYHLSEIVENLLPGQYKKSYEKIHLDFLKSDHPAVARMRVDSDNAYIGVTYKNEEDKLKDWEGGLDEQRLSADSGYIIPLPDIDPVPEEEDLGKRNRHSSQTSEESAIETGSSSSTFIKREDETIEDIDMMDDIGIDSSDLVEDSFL

[23] = tested on: Serine/threonine-protein kinase B-raf (Homo sapiens), P15056 [V600E]; experiment: Binding affinity to human BRAF V600E mutant isoleucine residue assessed as residual binding at 1 uM by site dependent competitive binding assay
[24] = target: Tyrosine-protein kinase Lck (Homo sapiens) (UniProt P06239); experiment: Binding affinity to human LCK tyrosine residue assessed as residual binding at 1 uM by site dependent competitive binding assay
[25] = target: Fibroblast growth factor receptor 3 (Homo sapiens) (UniProt P22607); experiment: Binding affinity to human Fgfr3 assessed as residual binding at 1 uM by site dependent competitive binding assay
[26] = target: Tyrosine-protein kinase ABL2 (Homo sapiens) (UniProt P42684); experiment: Binding affinity to human ABL2 phenylalanine residue assessed as residual binding at 1 uM by site dependent competitive binding assay
[27] = target: Mitogen-activated protein kinase 10 (Homo sapiens) (UniProt P53779); experiment: Binding affinity to human Jnk3 isoleucine residue assessed as residual binding at 1 uM by site dependent competitive binding assay
[28] = target: Calcium/calmodulin-dependent protein kinase kinase 1 (Homo sapiens) (UniProt Q8N5S9); experiment: Binding affinity to human CAMKK1 isoleucine residue assessed as residual binding at 1 uM by site dependent competitive binding assay
[29] = target: Calcium/calmodulin-dependent protein kinase kinase 2 (Homo sapiens) (UniProt Q96RR4); experiment: Binding affinity to human CAMKK2 isoleucine residue assessed as residual binding at 1 uM by site dependent competitive binding assay
[30] = target: Macrophage colony-stimulating factor 1 receptor (Homo sapiens) (UniProt P07333); experiment: Binding affinity to human CSF1R cysteine residue assessed as residual binding at 1 uM by site dependent competitive binding assay
[31] = target: Serine/threonine-protein kinase MARK2 (Homo sapiens) (UniProt Q7KZI7); experiment: Binding affinity to human Mark2 isoleucine residue assessed as residual binding at 1 uM by site dependent competitive binding assay
[32] = target: Protein-tyrosine kinase 2-beta (Homo sapiens) (UniProt Q14289); experiment: Binding affinity to human Pyk2 assessed as residual binding at 1 uM by site dependent competitive binding assay
[33] = target: Tyrosine-protein kinase Fer (Homo sapiens) (UniProt P16591); experiment: Binding affinity to human Fer assessed as residual binding at 1 uM by site dependent competitive binding assay
[34] = target: T2, Platelet-derived growth factor receptor alpha; experiment: Binding affinity to human PDGFRalpha cysteine residue assessed as residual binding at 1 uM by site dependent competitive binding assay
[35] = target: Fibroblast growth factor receptor 1 (Homo sapiens) (UniProt P11362); experiment: Binding affinity to human Fgfr1 assessed as residual binding at 1 uM by site dependent competitive binding assay
[36] = target: Epithelial discoidin domain-containing receptor 1 (Homo sapiens) (UniProt Q08345); experiment: Binding affinity to human DDR1 phenylalanine residue assessed as residual binding at 1 uM by site dependent competitive binding assay
[37] = target: Platelet-derived growth factor receptor beta (Homo sapiens) (UniProt P09619); experiment: Binding affinity to human PDGFRbeta cysteine residue assessed as residual binding at 1 uM by site dependent competitive binding assay
[38] = target: Mitogen-activated protein kinase 8 (Homo sapiens) (UniProt P45983); experiment: Binding affinity to human Jnk1 isoleucine residue assessed as residual binding at 1 uM by site dependent competitive binding assay
[39] = target: Cyclin-G-associated kinase (Homo sapiens) (UniProt O14976); experiment: Binding affinity to human GAK isoleucine residue assessed as residual binding at 1 uM by site dependent competitive binding assay
[40] = target: T1, Mast/stem cell growth factor receptor Kit; experiment: Binding affinity to human Kit cysteine residue assessed as residual binding at 1 uM by site dependent competitive binding assay
[41] = target: Platelet-derived growth factor receptor beta (Homo sapiens) (UniProt P09619); experiment: Binding affinity to human PDGFRbeta assessed as residual binding at 1 uM by site dependent competitive binding assay
[42] = target: Tyrosine-protein kinase Fes/Fps (Homo sapiens) (UniProt P07332); experiment: Binding affinity to human Fes assessed as residual binding at 1 uM by site dependent competitive binding assay
[43] = target: T2, Platelet-derived growth factor receptor alpha; experiment: Binding affinity to human PDGFRalpha assessed as residual binding at 1 uM by site dependent competitive binding assay
[44] = tested on: Mast/stem cell growth factor receptor Kit (Homo sapiens), P10721 [V559D]; experiment: Binding affinity to human Kit V559D mutant cysteine residue assessed as residual binding at 1 uM by site dependent competitive binding assay
Chain of Mast/stem cell growth factor receptor Kit (Homo sapiens), P10721 [V559D] (P10721 whole entry V559D): as the sequence (P10721 whole entry) above, with V559D counted along it

[45] = target: Macrophage colony-stimulating factor 1 receptor (Homo sapiens) (UniProt P07333); experiment: Binding affinity to human CSF1R assessed as residual binding at 1 uM by site dependent competitive binding assay
[46] = target: Vascular endothelial growth factor receptor 2 (Homo sapiens) (UniProt P35968); experiment: Binding affinity to human Vegfr2 assessed as residual binding at 1 uM by site dependent competitive binding assay
[47] = target: Cyclin-dependent kinase-like 1 (Homo sapiens) (UniProt Q00532); experiment: Binding affinity to human CDKL1 assessed as residual binding at 1 uM by site dependent competitive binding assay
[48] = target: T1, Mast/stem cell growth factor receptor Kit; experiment: Binding affinity to human Kit assessed as residual binding at 1 uM by site dependent competitive binding assay
[49] = target: Serine/threonine-protein kinase 17A (Homo sapiens) (UniProt Q9UEE5); experiment: Binding affinity to human DRAK1 valine residue assessed as residual binding at 1 uM by site dependent competitive binding assay
[50] = target: Fibroblast growth factor receptor 4 (Homo sapiens) (UniProt P22455); experiment: Binding affinity to human Fgfr4 assessed as residual binding at 1 uM by site dependent competitive binding assay
[51] = target: Vascular endothelial growth factor receptor 1 (Homo sapiens) (UniProt P17948); experiment: Binding affinity to human Flt1 assessed as residual binding at 1 uM by site dependent competitive binding assay
[52] = target: Ephrin type-A receptor 8 (Homo sapiens) (UniProt P29322); experiment: Binding affinity to human EPHA8 tyrosine residue assessed as residual binding at 1 uM by site dependent competitive binding assay
[53] = target: Vascular endothelial growth factor receptor 3 (Homo sapiens) (UniProt P35916); experiment: Binding affinity to human Flt4 assessed as residual binding at 1 uM by site dependent competitive binding assay

SMILES: Cc1ccc(NC(=O)c2ccc(CN3CCN(C)CC3)cc2)cc1Nc1nccc(-c2cccnc2)n1
- Activity [2]: 97%
- Activity [3]: 85%
- Activity [4]: 8.8%
- Activity [5]: 7.2%
- Activity [6]: 91%
- Activity [7]: 0.8%
- Activity [8]: 5.1%
- Activity [9]: 5.2%
- Activity [10]: 78%
- Activity [11]: 99%

SMILES: C/C=C/C(=O)NCc1ccc(C(=O)Nc2ccc(C)c(Nc3nccc(-c4cccnc4)n3)c2)cc1
- pIC50 [12]: < 4.70
- pIC50 [1]: 5.33

SMILES: C=C(C)C(=O)NCc1ccc(C(=O)Nc2ccc(C)c(Nc3nccc(-c4cccnc4)n3)c2)cc1
- pIC50 [12]: < 4.70
- pIC50 [1]: 5.56

SMILES: Cc1ccc(NC(=O)c2ccc(CNC(=O)CCl)cc2)cc1Nc1nccc(-c2cccnc2)n1
- Activity [13]: 7%
- Activity [14]: 76%
- Activity [15]: 69%
- Activity [16]: 4.6%
- Activity [17]: 100%
- Activity [18]: 92%
- Activity [19]: 81%
- Activity [20]: 31%
- Activity [21]: 100%
- pIC50 [22]: 5.97
- Activity [23]: 4.6%
- Activity [24]: 64%
- Activity [25]: 100%
- Activity [26]: 49%
- Activity [27]: 1.9%
- Activity [28]: 100%
- Activity [29]: 100%
- Activity [30]: 5%
- Activity [31]: 100%
- Activity [32]: 68%
- Activity [33]: 95%
- Activity [34]: 0.7%
- Activity [35]: 100%
- Activity [36]: 0.5%
- Activity [37]: 0%
- Activity [38]: 0.45%
- Activity [39]: 18%
- Activity [40]: 0%
- pIC50 [12]: < 4.70
- Activity [41]: 0%
- Activity [42]: 100%
- Activity [43]: 0.7%
- Activity [44]: 0%
- Activity [45]: 5%
- Activity [46]: 64%
- Activity [47]: 100%
- Activity [48]: 0%
- Activity [49]: 100%
- Activity [50]: 100%
- Activity [51]: 86%
- Activity [52]: 100%
- Activity [53]: 100%
- pIC50 [1]: 6.10

Further molecules by rising pIC50 [1], results first:

- pIC50 [12]: < 4.70
- pIC50 [1]: 6.10
SMILES: Cc1ccc(NC(=O)c2ccc(CN)cc2)cc1Nc1nccc(-c2cccnc2)n1

- pIC50 [1]: 6.61
SMILES: Cc1ccc(NC(=O)c2ccc(CCl)cc2)cc1Nc1nccc(-c2cccnc2)n1
